Patent US12492163B2, “9H-fluorene derivatives or their pharmaceutically acceptable salts” (priority 2020, dated 2025)

Experiments:
[1] = biological target: horse plasma butyrylcholinesterase (eqBuChE) (Equus caballus (Horse), UniProt P81908); assay: Ellman's test, inhibition of horse plasma butyrylcholinesterase; assay type: biochemical
Experimental: (§1) The spectrophotometric Ellman's test [Ellman et al.] modified for assays in 96-well plates was used to test the activity. Reagents: 5,5′-dithiobis-(2-nitrobenzoic acid) (DTNB), eqBuChE and butyrylthiocholine iodide (BTC) were purchased from Sigma-Aldrich (Steinheim, Germany). hBuChE was from Vivonics (Bedford, MA, USA). The enzymes were prepared by dissolving in demineralized water to a concentration of 0.384 U/ml. Stock solutions of test compounds were prepared by dissolving in DMSO to a concentration of 0.0034 M. They were then diluted with water to obtain the appropriate concentrations in the wells. In the first step of the test, 25 μl of test compound (or DMSO/water mixture at the appropriate ratio for blank samples) was incubated in 0.1 M phosphate buffer (200 μl, pH=8.0) with DTNB (20 μl; 0.0025M) and with the appropriate enzyme (20 μl; eqBuChE or hBuChE) at 25° C. (animal enzyme) or 36° C. (human enzyme). After a 5 minutes incubation period, 20 μl of BTC solution (0.00375 M) was added. After another 5 minutes, the changes in absorbance of the solutions were measured at 412 nm using a multifunctional microplate reader (EnSpire Multimode; PerkinElmer; Waltham, MA, USA). All compounds were tested at a screening concentration of 10 μM (eqBuChE) or 1 μM (hBuChE). The percentage of enzyme inhibition was calculated from the equation 100-(S/B)×100, where S and B were the enzymatic activity in the test sample well and in the well without sample, respectively. […] All reactions were performed in triplicate. IC50 values were calculated using non-linear regression (GraphPad Prism 5 [GraphPad Software, San Diego, CA, USA 5.00]) for the percentage of enzyme inhibition against the inhibitor concentration used. Tacrine and donepezil were used as reference compounds.

[2] = biological target: human plasma butyrylcholinesterase (hBuChE) (Homo sapiens (Human), UniProt P06276); assay: Ellman's test, inhibition of human plasma butyrylcholinesterase; assay type: biochemical
Sequence of human plasma butyrylcholinesterase (hBuChE) (P06276 29-602): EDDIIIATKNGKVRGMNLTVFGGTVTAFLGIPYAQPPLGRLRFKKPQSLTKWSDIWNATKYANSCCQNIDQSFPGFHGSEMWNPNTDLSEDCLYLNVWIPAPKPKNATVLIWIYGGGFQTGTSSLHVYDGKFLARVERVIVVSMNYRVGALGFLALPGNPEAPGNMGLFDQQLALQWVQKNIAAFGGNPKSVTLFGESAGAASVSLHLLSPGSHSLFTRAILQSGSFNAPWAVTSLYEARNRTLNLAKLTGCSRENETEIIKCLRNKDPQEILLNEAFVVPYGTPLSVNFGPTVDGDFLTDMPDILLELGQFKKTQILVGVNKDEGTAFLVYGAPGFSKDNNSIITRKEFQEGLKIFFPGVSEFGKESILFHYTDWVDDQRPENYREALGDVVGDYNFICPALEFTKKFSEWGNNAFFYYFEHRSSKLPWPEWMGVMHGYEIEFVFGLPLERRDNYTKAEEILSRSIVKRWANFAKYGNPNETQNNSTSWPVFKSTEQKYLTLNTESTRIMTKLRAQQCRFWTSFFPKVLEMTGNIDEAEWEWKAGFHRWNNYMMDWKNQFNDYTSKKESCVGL
Experimental: as §1

[3] = biological target: human recombinant beta-secretase (hBACE1) (Homo sapiens (Human), UniProt P56817); assay: FRET assay, inhibition of human recombinant beta-secretase; assay type: biochemical
Sequence of human recombinant beta-secretase (hBACE1) (P56817 46-501): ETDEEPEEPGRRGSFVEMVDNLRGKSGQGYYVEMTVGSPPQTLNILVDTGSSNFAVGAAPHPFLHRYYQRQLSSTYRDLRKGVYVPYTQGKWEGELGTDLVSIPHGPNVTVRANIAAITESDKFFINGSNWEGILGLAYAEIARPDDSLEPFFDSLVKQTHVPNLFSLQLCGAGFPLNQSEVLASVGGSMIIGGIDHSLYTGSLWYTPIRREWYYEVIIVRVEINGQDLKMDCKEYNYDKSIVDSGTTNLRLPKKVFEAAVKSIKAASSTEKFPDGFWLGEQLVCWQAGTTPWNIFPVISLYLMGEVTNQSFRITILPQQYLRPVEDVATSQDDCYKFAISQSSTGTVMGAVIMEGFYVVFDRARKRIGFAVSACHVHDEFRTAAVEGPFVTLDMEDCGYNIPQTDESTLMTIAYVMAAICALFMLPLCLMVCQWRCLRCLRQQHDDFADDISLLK
Experimental: The FRET assay [Vassar, et al.] was used to test activity using 384-well black plates and a microplate reader (EnSpire Multimode; PerkinElmer; Waltham, MA, USA). The test was purchased from Life Technologies Polska Sp. z o.o. (Warsaw, Poland). […] Stock solutions of test compounds were prepared in DMSO and then further diluted with assay buffer (50 mM sodium acetate; pH 4.5) to the appropriate concentrations in the wells. In the first step of the test, 10 μl of the substrate (Rh-[…] quencher, based on the so-called Swedish APP mutation) was mixed with 10 μl of the test compound (or assay buffer; for blank sample). The enzyme reaction was initiated by adding 10 μl of enzyme (hBACE1, 1 U/ml). The reaction mixture was incubated at 25° C. for 60 minutes, then 10 μL of Stop solution (2.5 M sodium acetate) was added. After stopping the reaction, fluorescence was measured at 576 nm. The percentage of enzyme inhibition was calculated from the formula [1−(S60−S0)/(C60−C0)]×100, where S0 and S60 are the fluorescence of the test sample (containing the enzyme, substrate and test compound) at the start of the reaction and after 60 minutes, respectively, whereas C0 and C60 were analogous fluorescence intensities in the blank samples (containing enzyme, substrate and buffer). All test compounds were tested at a concentration of 50 μM in triplicate. […] A BACE1 IV inhibitor (Calbiochem, Merck; Nottingham, UK) [Stachel et al.] was used as a reference compound. […] IC50 values for all test compounds were calculated using non-linear regression (GraphPad Prism 5 [GraphPad Software, San Diego, CA, USA 5.00]) for the percentage of enzyme inhibition against the inhibitor concentration used.

[4] = biological target: Recombinant human Aβ1-42 peptide (Homo sapiens (Human), UniProt P05067); assay: Thioflavin T test, antiaggregation activity against beta-amyloid; assay type: biochemical; settings: 10 μM test compound, 1.5 μM Aβ1-42; read-out: inh. Aβ aggr. % inh
Sequence of Recombinant human Aβ1-42 peptide (P05067 672-713): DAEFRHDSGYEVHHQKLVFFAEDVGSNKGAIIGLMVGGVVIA
Experimental: The thioflavin T test [Levine III] was used for the determinations. Recombinant human Aβ1-42 peptide (HFIP pretreated, Merck Millipore, Darmstadt, Germany) was dissolved in DMSO to form a 75 μM stock solution. The solution was further diluted in HEPES buffer (150 mM HEPES, pH 7.4, 150 mM NaCl) to a concentration of 7.5 μM. Then, the Aβ1-42 solution was added to the test compounds (black 96-well plates were used) and diluted with thioflavin T solution (10 μM final concentration). The final mixture contained 1.5 μM Aβ1-42, 10 μM test compound, and 3% of DMSO. Fluorescence was measured every 300 s (excitation wavelength was 440 nm, emission wavelength was 490 nm) with continuous mixing between measurements. A multifunction microplate reader (Synergy H4; BioTek Instruments, Inc., Winooski, VT, USA) was used to measure the fluorescence. Fluorescence started increasing after approximately 4 hours, plateaued after 20 hours and remained virtually unchanged for the next 28 hours of incubation. The plateau-phase fluorescence intensities (in the presence and absence of test compounds) were averaged and the mean fluorescence values for the respective wells at t=0 h were subtracted from them. […] IC50 values were calculated using non-linear regression (GraphPad Prism 5 [GraphPad Software, San Diego, CA, USA 5.00]) for the percentage of aggregation inhibition against the inhibitor concentration used.

[5] = biological target: mGAT1 (Mus musculus (Mouse), UniProt P31648); assay: [3H]GABA uptake inhibition, mGAT1 in HEK293 cells; assay type: cell-based; settings: GABA reuptake
Experimental: (§2) Exemplary compounds according to the invention were screened at the Ludwig-Maximilian University of Munich to determine the inhibitory ability towards four mouse GAT transporters (mGAT1-mGAT4). […] The biological material was stably transfected human embryonic kidney HEK293 cells, expressing genes to the appropriate transporters. The generated radioactivity was measured with a liquid scintillation counter. […] These determinations were made according to the procedure described in detail in A. Kragler, G. Höfner, K. T. Wanner, Novel parent structures for inhibitors of the murine GABA transporters mGAT3 and mGAT4, Eur. J. Pharmacol. 519 (2005) 43-47.

[6] = biological target: mGAT2 (Mus musculus (Mouse), UniProt P31651); assay: [3H]GABA uptake inhibition, mGAT2 in HEK293 cells; assay type: cell-based; settings: inhibitor at 100 μM; remaining reuptake
Sequence of mGAT2 (P31651 whole entry): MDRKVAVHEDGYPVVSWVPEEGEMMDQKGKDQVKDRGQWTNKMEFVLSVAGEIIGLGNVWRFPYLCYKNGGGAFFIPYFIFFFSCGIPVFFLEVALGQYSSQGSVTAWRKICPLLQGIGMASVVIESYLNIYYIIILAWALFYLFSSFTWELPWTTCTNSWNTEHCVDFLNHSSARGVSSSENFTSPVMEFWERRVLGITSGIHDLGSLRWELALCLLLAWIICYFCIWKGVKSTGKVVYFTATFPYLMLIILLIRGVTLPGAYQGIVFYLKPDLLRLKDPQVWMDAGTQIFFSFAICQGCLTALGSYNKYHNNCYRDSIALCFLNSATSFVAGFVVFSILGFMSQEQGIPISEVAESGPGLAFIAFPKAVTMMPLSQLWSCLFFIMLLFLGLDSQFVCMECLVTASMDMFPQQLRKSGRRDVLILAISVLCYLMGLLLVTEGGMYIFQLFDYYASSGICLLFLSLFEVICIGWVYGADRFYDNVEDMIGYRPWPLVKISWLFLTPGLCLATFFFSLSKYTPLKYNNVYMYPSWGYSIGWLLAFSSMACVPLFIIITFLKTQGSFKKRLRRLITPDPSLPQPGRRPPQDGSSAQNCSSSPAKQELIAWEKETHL
Experimental: as §2

[7] = biological target: mGAT3 (Mus musculus (Mouse), UniProt P31649); assay: [3H]GABA uptake inhibition, mGAT3 in HEK293 cells; assay type: cell-based; settings: GABA reuptake
Sequence of mGAT3 (P31649 whole entry): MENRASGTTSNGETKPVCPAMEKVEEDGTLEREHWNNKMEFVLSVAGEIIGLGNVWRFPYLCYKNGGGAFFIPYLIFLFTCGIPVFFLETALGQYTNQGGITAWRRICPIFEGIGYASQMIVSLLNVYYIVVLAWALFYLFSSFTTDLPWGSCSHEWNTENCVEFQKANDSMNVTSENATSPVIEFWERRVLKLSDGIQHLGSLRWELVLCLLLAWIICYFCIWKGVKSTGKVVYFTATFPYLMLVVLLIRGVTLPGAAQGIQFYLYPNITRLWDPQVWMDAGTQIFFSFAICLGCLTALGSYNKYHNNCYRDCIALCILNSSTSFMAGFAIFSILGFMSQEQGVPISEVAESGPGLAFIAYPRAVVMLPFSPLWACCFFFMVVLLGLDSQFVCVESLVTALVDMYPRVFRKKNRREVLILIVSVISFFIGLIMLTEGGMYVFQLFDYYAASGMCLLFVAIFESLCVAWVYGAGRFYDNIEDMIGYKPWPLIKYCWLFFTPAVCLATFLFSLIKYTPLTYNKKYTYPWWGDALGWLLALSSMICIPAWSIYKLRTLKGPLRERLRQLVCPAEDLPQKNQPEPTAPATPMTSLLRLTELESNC
Experimental: as §2

[8] = biological target: mGAT4 (Mus musculus (Mouse), UniProt P31650); assay: [3H]GABA uptake inhibition, mGAT4 in HEK293 cells; assay type: cell-based; settings: GABA reuptake; read-out: pIC50 (+/−SEM) mGAT4 (converted)
Sequence of mGAT4 (P31650 whole entry): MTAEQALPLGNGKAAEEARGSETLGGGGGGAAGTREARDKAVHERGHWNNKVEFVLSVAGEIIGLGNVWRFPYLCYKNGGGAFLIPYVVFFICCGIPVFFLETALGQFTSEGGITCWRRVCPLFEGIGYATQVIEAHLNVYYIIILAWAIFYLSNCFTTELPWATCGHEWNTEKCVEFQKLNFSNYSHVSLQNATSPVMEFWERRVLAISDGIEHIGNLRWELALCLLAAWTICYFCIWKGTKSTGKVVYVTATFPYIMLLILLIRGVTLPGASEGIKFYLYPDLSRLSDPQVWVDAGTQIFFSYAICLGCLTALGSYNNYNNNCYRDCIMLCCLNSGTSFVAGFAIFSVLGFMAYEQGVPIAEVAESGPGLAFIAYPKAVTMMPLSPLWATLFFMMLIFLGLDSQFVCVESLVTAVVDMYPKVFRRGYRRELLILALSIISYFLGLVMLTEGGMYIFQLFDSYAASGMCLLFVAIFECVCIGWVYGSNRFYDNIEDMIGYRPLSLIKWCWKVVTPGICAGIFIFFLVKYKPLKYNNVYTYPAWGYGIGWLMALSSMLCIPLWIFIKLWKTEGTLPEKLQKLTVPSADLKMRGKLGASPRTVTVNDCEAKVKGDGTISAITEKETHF
Experimental: as §2

Sequence of horse plasma butyrylcholinesterase (eqBuChE) (P81908 whole entry): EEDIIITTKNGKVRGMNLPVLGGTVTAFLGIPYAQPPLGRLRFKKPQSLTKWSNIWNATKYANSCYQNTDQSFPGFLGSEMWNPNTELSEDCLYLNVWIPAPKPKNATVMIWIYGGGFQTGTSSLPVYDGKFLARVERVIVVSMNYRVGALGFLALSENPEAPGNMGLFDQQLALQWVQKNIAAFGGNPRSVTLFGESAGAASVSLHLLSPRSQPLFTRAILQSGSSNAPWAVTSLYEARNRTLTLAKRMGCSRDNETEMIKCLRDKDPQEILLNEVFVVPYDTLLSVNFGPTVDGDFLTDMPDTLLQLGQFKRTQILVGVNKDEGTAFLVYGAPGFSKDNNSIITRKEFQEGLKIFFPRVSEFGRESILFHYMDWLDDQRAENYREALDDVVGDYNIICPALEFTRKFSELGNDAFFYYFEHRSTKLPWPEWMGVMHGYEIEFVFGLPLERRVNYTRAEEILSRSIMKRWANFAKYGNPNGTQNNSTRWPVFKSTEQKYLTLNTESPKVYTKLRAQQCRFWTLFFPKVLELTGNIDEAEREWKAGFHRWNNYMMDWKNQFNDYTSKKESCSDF

Structure (SMILES)	IC50 [1]	IC50 [2]	inhibition at 50 µM ([3]; 50 μM inhibitor concentration, read-out: hBACE-1 % inh)	inhibition at 10 µM [4]	pIC50 (+/−SEM) mGAT1 [5]	percentage of [3H]GABA reuptake retained, mGAT2 [6]	pIC50 (+/−SEM) mGAT3 [7]	IC50 [8]	IC50 ([3]; read-out: hBACE-1 IC50)
CC(C)(C)CNC[C@@H](O)[C@H](Cc1ccccc1)NC(=O)CC1c2ccccc2-c2ccccc21 [Compound 27, 2-(9H-fluoren-9-yl)-N-((2S,3R)-3-hydroxy-4-(neopentylamino)-1-phenylbutan-2-yl)acetamide]	383 nM	207 nM	52.4%	53.5%	4.32	52%	4.52	13800 nM	
O=C(CC1c2ccccc2-c2ccccc21)N[C@@H](Cc1ccccc1)[C@H](O)CNCC1CC1 [Compound 28, N-((2S,3R)-4-((cyclopropylmethyl)amino)-3-hydroxy-1-phenylbutan-2-yl)-2-(9H-fluoren-9-yl)acetamide]	1190 nM	246 nM		73.4%	4.87	10%	5.09	12600 nM	12300 nM
